Patent US9040717B2, “Pyrazole-amide compounds and pharmaceutical use thereof” (JAPAN TOBACCO INC., priority 2013, dated 2015)

Legend:
human PDHK1 (hPDHK1) = human PDHK1 (hPDHK1) (Homo sapiens (Human), UniProt Q15118); assay: Inhibitory action of PDHK1 activity in vitro (residual PDH activity after kinase reaction); type: biochemical
Procedure: The inhibitory action of PDHK activity was assessed indirectly by measuring the residual PDH activity after kinase reaction in the presence of a test compound.
The recombinant construct was transformed into Escherichia coli (DH5α-TOYOBO). The recombinant clones were identified, and plasmid DNA was isolated and subjected to the DNA sequence analysis. One clone which had the expected nucleic acid sequence was selected for expression work.
The Escherichia coli were grown to an optical density 0.6 ([…]) at 30° C. Protein expression was induced by the addition of 500 μmol/L isopropyl-β-thiogalactopyranoside. The Escherichia coli were cultured at 30° C. for 5 hr and harvested by centrifugation. Resuspension of the Escherichia coli paste was disrupted by a microfluidizer.
The eluted fractions containing FLAG-Tagged protein were pooled, dialyzed against 20 mmol/L HEPES-NaOH, 150 mmol/L sodium chloride, 0.5 mmol/L ethylenediamine tetraacetic acid (EDTA), 1% ethylene glycol, and 0.1% Pluronic F-68 (pH 8.0), and preserved at −80° C.
The mixture was incubated at room temperature for 90 min, and the residual PDH activity was measured.
The absorbance at 340 nm before and after PDH reaction was measured using a microplate reader to detect NADH produced by the PDH reaction.

[1] = tested on: Zucker Diabetic Fatty rats; assay: Effect of repeated administration on HbA1c in ZDF rats; type: in vivo, rat; conditions: 1 mg/kg oral once daily, day 14 of administration, mean ± S.D. (n = 10), *p < 0.05 vs. vehicle group
Procedure: Zucker Diabetic Fatty rats (male, 7-week-old, CHARLES RIVER LABORATORIES JAPAN INC.), an animal model for type 2 diabetes, given a purified diet (5.9% fat diet, Oriental Yeast Co., Ltd.) were allocated to the vehicle group and the test compound groups so that no bias occurred in the plasma glucose and insulin levels, HbAlc levels and body weights. Repeated oral doses of the test compound (1 mg/kg/5 mL) were administered to the rats once daily at 3 hr before the dark period. A 0.5% aqueous methylcellulose solution was orally administered in the same manner to the rats of the vehicle group. On day 14 of administration, blood samples were collected from the tail vein and HbAlc level (%) was measured. Statistical analysis was performed by Dunnett's test. Values of p<0.05 were cosidered statistically significant.

[2] = target: hERG current in hERG-transfected HEK293 cells (Homo sapiens (Human), UniProt Q12809); assay: hERG whole cell patch clamp test; type: cell-based; conditions: for IC50: whole cell patch clamp
Procedure: Using human ether-a-go-go related gene (hERG)-transfected HEK293 cells (Cytomyx Limited), an influence on hERG current was examined according to the whole cell patch clamp technique. The hERG-transfected HEK293 cells were passaged using a CO2 incubator (BNA-111, TABAI ESPEC CORP.) under the set conditions of 37° C., 5% CO2, saturated humidity. Culture containers used were Collagen Type I Coated 75 cm^2 flask (4123-010, AGC TECHNO GLASS CO., Ltd.) and Collagen Type I Coated 35 mm culture dish (4000-010, AGC TECHNO GLASS CO., Ltd.). The culture medium used was E-MEM (Eagle Minimum Essential Medium (Earle's Salts, Nikken biomedical laboratory) added with 10% FCS (Fetal calf serum, BioWest, L.L.C.) and 1% MEM Non-Essential Amino Acids Solution (NEAA, Invitrogen Corporation). Geneticin for the selection of hERG gene expressing cells was added thereto to a concentration of 400 μg/mL. As the cells for the measurement, 3×10^4 hERG-transfected HEK293 cells were plated on a 35 mm culture dish 4 to 7 days before measurement of the hERG current. The culture dish produced for the measurement contained the above-mentioned culture medium without geneticin (Invitrogen Corporation).
The highest evaluation concentration of each compound was determined from the highest concentration at which precipitation was not found in the standard extracellular fluid (NaCl: 140 mmol/L, KCl: 2.5 mmol/L, MgCl2:2 mmol/L, CaCl2: 2 mmol/L, HEPES: 10 mmol/L, glucose: 10 mmol/L (adjusted to pH 7.4 with Tris-base)). As the application method, each solution to be applied was ejected from a Y-tube having a tip diameter of about 0.25 mm, which was adjacent (about 2 mm) to the cells, and applied to the cells. The ejection rate was about 0.4 mL/min.
The experiment was performed at room temperature under a phase contrast microscope. The 35 mm culture dish plated with the cells was set on a measurement apparatus, and the standard extracellular fluid was continuously applied to the cells from the Y-tube. A glass electrode for the measurement was filled with an intracellular fluid (Potassium Gluconate: 130 mmol/L, KCl: 20 mmol/L, MgCl2: 1 mmol/L, ATP-Mg: 5 mmol/L, EGTA: 3.5 mmol/L, HEPES: 10 mmol/L (adjusted to pH 7.2 with Tris-base)). A conventional whole cell patch clamp method was applied to the cells, and the maintenance electric potential was set to −80 mV. Under a fixed electric potential, the whole cell current was amplified by an amplifier for patch clamp (AXOPATCH-200B, Axon Instruments, Inc.), and the data was loaded into a computer (IMC-P642400, Intermedical Co., Ltd.) using a data acquisition analysis software (pCLAMP 9.2, Axon Instruments, Inc.).
The measurement of the hERG current was performed in the following two steps. In both cases, the hERG current was initiated by giving a command potential (maintenance electric potential −80 mV, prepulse +20 mV, 1.5 sec, test-pulse −50 mV, 1.5 sec).
Step (1): The above-mentioned command potential was given at 0.1 Hz for 2 min.
Step (2): The above-mentioned command potential was subjected to P/3 subtraction of pCLAMP 9.2 to remove leak current. This was repeated three times and an average thereof was taken as hERG current.
Subsequent to step (1), Step (2) was performed (about 3 min), and the maximum tail current obtained by applying a test-pulse to the hERG current obtained by the method of step (2) was taken as hERG current value. Hereafter, the operations of (1) and (2) were alternately repeated until completion of the experiment and the hERG current value was measured.
Stable hERG current value was recorded three times (about 10 min), and the standard extracellular fluid was instantaneously exchanged with each application fluid. The hERG current value was measured three times (about 10 min) in the same manner during perfusion of the application fluid, and the current value obtained by the 3rd measurement was taken as hERG current value after perfusion of the application fluid. […]

hERG current in hERG-transfected HEK293 cells, sequence (Q12809 whole entry): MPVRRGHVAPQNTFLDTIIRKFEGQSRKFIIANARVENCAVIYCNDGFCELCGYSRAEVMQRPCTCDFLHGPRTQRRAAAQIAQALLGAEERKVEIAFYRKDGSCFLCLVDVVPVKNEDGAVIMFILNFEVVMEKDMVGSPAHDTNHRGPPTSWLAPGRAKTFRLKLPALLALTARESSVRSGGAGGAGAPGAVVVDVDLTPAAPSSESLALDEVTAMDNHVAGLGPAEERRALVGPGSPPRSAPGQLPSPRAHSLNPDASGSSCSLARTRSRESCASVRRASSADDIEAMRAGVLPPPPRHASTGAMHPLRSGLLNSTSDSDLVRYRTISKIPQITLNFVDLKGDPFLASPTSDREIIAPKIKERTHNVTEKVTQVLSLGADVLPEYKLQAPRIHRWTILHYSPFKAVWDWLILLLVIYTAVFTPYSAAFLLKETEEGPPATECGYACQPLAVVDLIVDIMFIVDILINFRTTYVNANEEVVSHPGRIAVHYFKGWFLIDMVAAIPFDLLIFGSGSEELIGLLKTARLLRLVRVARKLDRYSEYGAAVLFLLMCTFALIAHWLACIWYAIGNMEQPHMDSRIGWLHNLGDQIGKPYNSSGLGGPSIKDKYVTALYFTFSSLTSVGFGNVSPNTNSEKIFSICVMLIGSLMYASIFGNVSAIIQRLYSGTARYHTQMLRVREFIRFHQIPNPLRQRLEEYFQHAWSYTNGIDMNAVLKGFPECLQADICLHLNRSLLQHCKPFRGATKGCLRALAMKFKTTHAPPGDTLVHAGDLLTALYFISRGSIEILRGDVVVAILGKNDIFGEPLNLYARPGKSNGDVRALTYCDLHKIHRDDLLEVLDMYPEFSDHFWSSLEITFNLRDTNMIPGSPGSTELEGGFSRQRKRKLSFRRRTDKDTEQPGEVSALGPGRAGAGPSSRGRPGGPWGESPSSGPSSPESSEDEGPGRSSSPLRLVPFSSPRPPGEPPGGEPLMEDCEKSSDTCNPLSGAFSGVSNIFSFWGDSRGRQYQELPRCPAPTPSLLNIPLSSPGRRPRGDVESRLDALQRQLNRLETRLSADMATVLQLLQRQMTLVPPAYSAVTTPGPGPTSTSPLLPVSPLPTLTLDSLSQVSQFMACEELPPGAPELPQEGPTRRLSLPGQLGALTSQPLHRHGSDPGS
human PDHK1 (hPDHK1), sequence (Q15118 29-436): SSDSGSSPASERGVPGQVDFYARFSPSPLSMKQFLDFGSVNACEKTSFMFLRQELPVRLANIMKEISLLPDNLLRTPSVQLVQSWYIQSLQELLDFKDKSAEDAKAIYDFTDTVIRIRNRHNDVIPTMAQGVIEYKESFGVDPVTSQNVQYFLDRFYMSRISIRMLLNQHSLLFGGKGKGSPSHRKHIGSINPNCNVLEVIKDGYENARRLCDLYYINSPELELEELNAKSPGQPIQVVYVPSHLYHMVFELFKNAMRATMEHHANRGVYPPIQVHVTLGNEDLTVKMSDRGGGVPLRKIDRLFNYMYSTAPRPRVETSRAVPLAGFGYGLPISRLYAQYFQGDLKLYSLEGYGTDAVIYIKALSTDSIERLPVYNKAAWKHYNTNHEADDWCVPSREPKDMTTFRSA

Row | Compound | IC50 (human PDHK1 (hPDHK1)) [nM] | HbA1c (%) [1] | hERG current Inhibition rate (%) ([2]; 30 μmol/L) | IC50 [2] [nM] | hERG current Inhibition rate (%) ([2]; 10 μmol/L) | hERG current Inhibition rate (%) ([2]; 1 μmol/L)
1 | CC(C)(O)CCCOc1cc(-c2cnn(C(C)(C)C(N)=O)c2)c2c(c1)[C@@](O)(C(F)(F)F)c1ccccc1-2 [Compound (3), 2-{4-[(9R)-9-hydroxy-2-(4-hydroxy-4-methylpentyloxy)-9-(trifluoromethyl)-9H-fluoren-4-yl]-1H-pyrazol-1-yl}-2-methylpropanamide] | 3.5 | 3.4 ± 0.1* % | 27.3 | > 30000 | – | –
2 | CC(C)(O)CCOc1cc(-c2cnn(C(C)(C)C(N)=O)c2)c2c(c1)[C@@](O)(C(F)(F)F)c1ccccc1-2 [Compound (2), 2-{4-[(9R)-9-hydroxy-2-(3-hydroxy-3-methylbutyloxy)-9-(trifluoromethyl)-9H-fluoren-4-yl]-1H-pyrazol-1-yl}-2-methylpropanamide] | 4.7 | 3.2 ± 0.1* % | 24.4 | > 30000 | – | –
3 | NC(=O)Cn1cc(-c2cc(OCCC34CC5CC(CC(O)(C5)C3)C4)cc3c2-c2ccccc2[C@]3(O)C(F)(F)F)cn1 [Compound (A), 2-(4-{(9R)-9-Hydroxy-2-[2-(3-hydroxyadamantan-1-yl)ethoxy]-9-(trifluoromethyl)-9H-fluoren-4-yl}-1H-pyrazol-1-yl)acetamide] | – | – | – | – | 11.8 | –
4 | Cn1cc(-c2cc(OCC(C)(C)O)cc3c2-c2ccccc2[C@]3(O)C(F)(F)F)cn1 [Compound (B), (9R)-2-(2-Hydroxy-2-methylpropoxy)-4-(1-methyl-1H-pyrazol-4-yl)-9-(trifluoromethyl)-9H-fluoren-9-ol] | – | – | – | – | 72.9 | 17.4
